Source: patent US20230414826A1, “FIBRIN HYDROGELS” (Mayo Foundation for Medical Education and Research, priority 2020, published 2023)

Molecular target: T1, fibrin gels (40 mg/mL fibrinogen, 33 U/mL thrombin) (Homo sapiens, UniProt P02671+P02675+P02679)
T1 construct: purchased Ethicon (Evicel)
T1 sequence (P02671 20-644 isoform P02671-2 limits assumed): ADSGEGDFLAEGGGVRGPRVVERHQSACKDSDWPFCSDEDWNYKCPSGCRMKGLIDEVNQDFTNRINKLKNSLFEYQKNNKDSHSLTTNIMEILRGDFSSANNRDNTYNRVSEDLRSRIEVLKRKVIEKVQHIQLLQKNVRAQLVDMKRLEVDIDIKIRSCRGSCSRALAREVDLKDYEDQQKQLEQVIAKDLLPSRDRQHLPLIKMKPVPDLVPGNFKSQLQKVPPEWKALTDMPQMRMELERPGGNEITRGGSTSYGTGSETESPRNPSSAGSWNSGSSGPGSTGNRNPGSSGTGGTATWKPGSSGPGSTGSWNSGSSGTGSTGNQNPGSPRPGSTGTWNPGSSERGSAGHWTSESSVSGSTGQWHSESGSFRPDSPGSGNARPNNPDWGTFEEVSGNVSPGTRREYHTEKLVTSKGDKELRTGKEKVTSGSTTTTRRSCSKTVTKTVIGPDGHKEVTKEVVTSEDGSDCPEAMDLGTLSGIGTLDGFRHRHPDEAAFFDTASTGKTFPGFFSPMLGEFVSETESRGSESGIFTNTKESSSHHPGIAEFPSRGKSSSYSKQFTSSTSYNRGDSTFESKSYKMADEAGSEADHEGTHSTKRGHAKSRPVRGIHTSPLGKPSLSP
T1 sequence (P02675 45-491 limits assumed): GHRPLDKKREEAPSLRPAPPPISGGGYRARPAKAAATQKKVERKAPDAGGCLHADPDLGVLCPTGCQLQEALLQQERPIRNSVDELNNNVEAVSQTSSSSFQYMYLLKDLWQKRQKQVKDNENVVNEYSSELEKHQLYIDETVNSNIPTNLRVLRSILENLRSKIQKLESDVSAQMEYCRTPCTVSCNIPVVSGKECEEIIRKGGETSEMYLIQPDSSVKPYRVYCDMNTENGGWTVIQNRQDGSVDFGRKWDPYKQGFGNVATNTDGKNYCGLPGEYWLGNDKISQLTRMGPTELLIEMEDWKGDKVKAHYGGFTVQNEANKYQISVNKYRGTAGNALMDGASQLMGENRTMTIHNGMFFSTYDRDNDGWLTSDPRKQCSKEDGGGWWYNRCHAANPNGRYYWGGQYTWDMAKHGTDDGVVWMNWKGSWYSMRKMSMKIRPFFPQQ
T1 sequence (P02679 27-437 isoform P02679-2 limits assumed): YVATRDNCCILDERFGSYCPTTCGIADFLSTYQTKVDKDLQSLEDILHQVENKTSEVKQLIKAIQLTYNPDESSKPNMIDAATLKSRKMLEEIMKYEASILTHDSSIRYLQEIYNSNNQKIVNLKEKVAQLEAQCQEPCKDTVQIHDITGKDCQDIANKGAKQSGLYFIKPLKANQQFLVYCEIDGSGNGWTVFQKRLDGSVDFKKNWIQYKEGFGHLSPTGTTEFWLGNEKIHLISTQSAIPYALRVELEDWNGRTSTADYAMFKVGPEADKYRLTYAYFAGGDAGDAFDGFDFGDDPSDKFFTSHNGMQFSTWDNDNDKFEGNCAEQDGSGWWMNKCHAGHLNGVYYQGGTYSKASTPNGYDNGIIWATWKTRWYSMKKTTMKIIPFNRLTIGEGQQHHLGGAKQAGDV
Assay: Biexponential modeling of shear modulus (g′) versus time data
Settings: biexponential model; for time shift parameter (xc): 0.12% dye, n=3; for G′1: fast rate associated parameter; for G′1 / r1 / G′2 / r2 / xc: avg ± sd, n = 3; for r1: fast rate constant; for G′2: slow rate associated parameter; for r2: slow rate constant; for xc: time shift parameter
Procedure: Modeling was performed using the shear modulus (g′) versus time data for each time sweep performed with gels with a final concentration of 40 mg/mL fibrinogen, 33 U/mL thrombin, and 0.12% dye. A biexponential model was used as described elsewhere (see, e.g., Wedgwood et al., Macromolecular Symposia, 334:117-25 (2013); and Moreno-Arotzena et al., Materials (Basel), 8:1636-51 (2015)). The following equation was used: […]
This equation model assumes a fast (1) and slow (2) kinetic rate. As such G′1 and G′2 are the respective rate associated parameters, r1 and r2 are the respective rates constants, and Xc is a time shift parameter. Modeling was performed using MATLAB (Mathworks; Natick, MA), using the model fit function. Parameters were defined with r1>r2 and xc as positive. Each sample run was best fitted to the model to generate an r^2>0.98.
Previous work has fitted fibrin gelation kinetics to a biexponential model (see, e.g., Moreno-Arotzena et al., Materials (Basel), 8:1636-51 (2015)). In this model, gelation, as measured by the shear modulus over time, consists of a fast and slow reaction rate. Each time sweep series was fitted to the biexponential model to determine the fast (1) and slow (2) associated parameters, reaction rates and time shift parameter (Table 2 and FIG. 9). The time shift parameters (xc) for the PBS, TB, EB, and PEG groups were 19.7±7.2, 62.9±9.7, 110.6±7.6, and 20.3±5.0 sec (n=3, p<0.001) (FIG. 9A). […] This re-affirms the shifted delay in gelation onset for TB and EB groups and confirms that the effect is not due to changes in molality. To understand if there is a change in reaction rates, the ratio of the fast to slow reaction rate was compared. The ratios, r1/r2, for PBS, TB, EB and PEG groups were […] (n=3, p=0.057) (FIG. 9B).

Structure (SMILES): Cc1cc(-c2ccc(/N=N/c3ccc4c(S(=O)(=O)O)cc(S(=O)(=O)O)c(N)c4c3O)c(C)c2)ccc1/N=N/c1ccc2c(S(=O)(=O)O)cc(S(=O)(=O)O)c(N)c2c1O [EB, Evans Blue]
- time shift parameter (xc): 110.6 ± 7.6 s
- G′1: 927 ± 395
- r1: 3720 ± 732
- G′2: 787 ± 210
- r2: 739 ± 205
- xc: 111 ± 8

Structure (SMILES): Cc1cc(-c2ccc(/N=N/c3c(S(=O)(=O)O)cc4cc(S(=O)(=O)O)cc(N)c4c3O)c(C)c2)ccc1/N=N/c1c(S(=O)(=O)O)cc2cc(S(=O)(=O)O)cc(N)c2c1O [TB, Trypan Blue]
- time shift parameter (xc): 62.9 ± 9.7 s
- G′1: 1555 ± 92
- r1: 2679 ± 366
- G′2: 800 ± 186
- r2: 455 ± 131
- xc: 63 ± 10
